Measurements: PMC8175309, “Translational CNS Steady-State Drug Disposition Model in Rats, Monkeys, and Humans for Quantitative Prediction of Brain-to-Plasma and Cerebrospinal Fluid-to-Plasma Unbound Concentration Ratios” (The AAPS Journal, 2021)
Where two headings read alike, the source gives them in different places.

Assays:
in vivo [1] = conditions: for Kp uu: rat, in vivo
Procedure: The CSF samples collected from cisterna magna in rats were stored at –80°C until analysis by liquid chromatography-tandem mass spectrometry (LC-MS/MS). Before performing the LC-MS/MS analysis, these samples were thawed on ice and mixed with three volumes of acetonitrile. The acetonitrile mixtures were vortexed and centrifuged, and the supernatant was collected. After dilution with mobile phase A (a mixture of 10 mM ammonium formate and formic acid at 100:0.2 (v/v)), the supernatant was injected into the LC-MS/MS system.
(§1) To perform correlation analyses between the observed Kp,uu,brain and Kp,uu,CSF, and the model-based prediction of Kp,uu,brain and Kp,uu,CSF, data from literature information were integrated into the internally obtained data for these assessments (Supplemental Table 2) ([17],[22]–[24],[27]–[33]). When only the total concentrations in plasma, CSF, and brain were available, the total concentration ratio in plasma to CSF or brain (Kp,CSF or Kp,brain, respectively) was estimated, followed by calculation of Kp,uu,CSF or Kp,uu,brain based on Eqs.

[2] = cited from earlier work
MDR1 = MDR1 (Homo sapiens, UniProt P08183); assay: in vitro; conditions: dog, MDCK-MDR1, pH 7.4
Procedure: (§2) To the compounds available internally, in vitro efflux ratios for MDR1 and BCRP were determined by the following procedure (Supplemental Table 2). Test compound stock solutions in dimethyl sulfoxide (DMSO) were diluted in transport buffer (Hanks’ balanced salt solution (HBSS) with 10 mM HEPES, pH 7.4) to a concentration of 1 μM (DMSO < 1%) and applied to the apical or basolateral side of a cell monolayer derived from Madin-Darby canine kidney (MDCK)-MDR1 and MDCK-BCRP cells. Permeation of the test compounds from apical to basolateral (A to B) direction or B to A direction was measured in duplicate. The plate was incubated for 1 h in a CO2 incubator at 37±1°C with 5% CO2 at saturated humidity without shaking. In addition, the efflux ratio of each compound was also determined. Test and reference compounds were quantified by LC-MS/MS analysis based on the peak area ratio of analyte/internal standard.
(§3) The apparent permeability coefficient Papp (cm/s) was calculated by using Eq. 1: 1 Papp=dCr/dt×Vr/A×C0 where dCr/dt is the cumulative concentration of the compound in the receiver chamber as a function of time (μM/s); Vr is the volume of the solution in the receiver chamber (0.075 mL on the apical side, 0.25 mL on the basolateral side); A is the surface area for transport, i.e., 0.0804 cm^2 for the area of the monolayer; and C0 is the initial concentration (μM) in the donor chamber.
(§4) The efflux ratio was calculated using Eq. 2: 2 Efflux ratio=Papp,BtoA/Papp,AtoB

BCRP = biological target: T1, BCRP (Homo sapiens, UniProt Q9UNQ0); assay: in vitro; conditions: dog, pH 7.4
T1 sequence (Q9UNQ0 1-655): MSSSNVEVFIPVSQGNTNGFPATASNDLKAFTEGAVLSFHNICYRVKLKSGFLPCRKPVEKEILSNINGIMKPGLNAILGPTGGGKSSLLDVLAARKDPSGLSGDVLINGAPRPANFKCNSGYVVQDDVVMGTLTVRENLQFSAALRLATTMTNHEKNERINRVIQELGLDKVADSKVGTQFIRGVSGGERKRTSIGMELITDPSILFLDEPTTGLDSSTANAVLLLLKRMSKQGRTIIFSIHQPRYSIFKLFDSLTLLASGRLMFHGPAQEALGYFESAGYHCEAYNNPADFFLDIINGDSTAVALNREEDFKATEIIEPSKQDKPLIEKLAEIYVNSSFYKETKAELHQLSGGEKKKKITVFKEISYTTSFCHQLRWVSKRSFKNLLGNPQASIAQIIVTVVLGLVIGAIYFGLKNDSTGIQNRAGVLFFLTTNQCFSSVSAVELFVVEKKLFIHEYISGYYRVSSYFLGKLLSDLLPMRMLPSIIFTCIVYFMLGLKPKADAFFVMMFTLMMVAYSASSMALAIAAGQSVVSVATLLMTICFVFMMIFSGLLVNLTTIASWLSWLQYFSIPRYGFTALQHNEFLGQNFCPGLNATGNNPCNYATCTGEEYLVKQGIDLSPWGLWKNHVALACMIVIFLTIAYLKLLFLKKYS
Procedure: as §2, §3, §4

[3] = cited from earlier work; for Kp,uu,brain Human: *3 ref Summerfield et al. (25)
[4] = cited from earlier work; remark: listed apart in the source
in vivo [5] = conditions: for Kp uu at 6 h: cynomolgus monkey, in vivo
Procedure: Monkey experiments were conducted internally or at the Drug Safety Research Laboratories in Shin Nippon Biomedical Laboratories via consignment to Axcelead Drug Discovery Partners. […] Detailed dosage regimen for each compound is summarized in Supplemental Table 3. […] Each cassette was assigned to a separate group of monkeys. The vehicle was saline or a mixture of dimethylacetamide and 1,3-butanediol (1:1, v/v). At the end of the 6-h infusion or 1 h after intravenous bolus administration, the monkeys were anesthetized, and whole blood, CSF, and whole brain were collected. Blood was collected using the anticoagulant, heparin sodium, and immediately centrifuged; the plasma was transferred to polypropylene tubes. Then, ketamine hydrochloride (50 mg/mL; 0.2 mL/kg; 10 mg/kg) was intramuscularly administered. CSF was collected after lumbar puncture using a spinal needle (22–25G) and a syringe pre-wetted with 10% CHAPS solution to prevent adsorption of compounds to all the equipment during pretreatment. CSF samples were immediately centrifuged, and the supernatant layers were transferred to polypropylene tubes. […] After collecting the cerebellum, hippocampus, and cerebral cortex from the whole brain, these were washed with cold saline, weighed, and homogenized immediately in 4 volumes of ice-cold 100 mmol/L sodium phosphate buffer. All samples were stored at –80°C until analysis by LC-MS/MS. Each sample (50 μL) was mixed with the working solution (the mixture of dimethyl sulfoxide and acetonitrile (2:8, v/v)), and protein was precipitated by the addition of 150 μL acetonitrile containing the internal standards (5 ng/mL alprenolol and diclofenac). After centrifugation at 5,250 rpm and 4°C for 5 min, the supernatant (150 μL) was transferred to a polypropylene 96-well plate (Corning; Corning, NY, USA) and completely evaporated under a gentle stream of N2. The residue was reconstituted in dilution solution (mobile phase A/B (7:3, v/v)), and the supernatant was analyzed by LC-MS/MS.
Each sample (50 μL) was mixed with the working solution (the mixture of dimethyl sulfoxide and acetonitrile (2:8, v/v)), and the protein was precipitated by adding 150 μL acetonitrile containing internal standards (5 ng/mL alprenolol and diclofenac). After centrifugation at 5250 rpm and 4°C for 5 min, the supernatant (150 μL) was transferred to a polypropylene 96-well plate (Corning) and completely evaporated under a gentle stream of N2. The residue was reconstituted in mobile phase A/B (7:3, v/v)), and the supernatant was analyzed by LC-MS/MS. API5000 and QTRAP5500 (AB SCIEX, Framingham, MA, USA) equipped with Ultra-Fast Liquid Chromatography (Shimadzu, Kyoto, Japan) were used for determination of drug concentrations. Reversed-phase chromatography was performed using Shim-pack XR ODS (2.2 μm, 2.0×30 mm). Mobile phase A consisted of 10 mM ammonium formate with 0.2% formic acid, and mobile phase B contained acetonitrile with 0.2% formic acid. […] The mass spectrometer was operated in the positive ionization mode with multiple reaction monitoring (MRM). The MRM parameters (Q1 ion, Q3 ion, DP, EP, CE, and CXP) for monitoring the compounds are shown in Supplemental Table 4. Data acquisition and processing were performed using Analyst 1.6.2 (AB SCIEX, Framingham, MA, USA).
as §1

[6] = monkey, *9 ref Nagaya et al. (19)

MDR1, sequence (P08183 whole entry): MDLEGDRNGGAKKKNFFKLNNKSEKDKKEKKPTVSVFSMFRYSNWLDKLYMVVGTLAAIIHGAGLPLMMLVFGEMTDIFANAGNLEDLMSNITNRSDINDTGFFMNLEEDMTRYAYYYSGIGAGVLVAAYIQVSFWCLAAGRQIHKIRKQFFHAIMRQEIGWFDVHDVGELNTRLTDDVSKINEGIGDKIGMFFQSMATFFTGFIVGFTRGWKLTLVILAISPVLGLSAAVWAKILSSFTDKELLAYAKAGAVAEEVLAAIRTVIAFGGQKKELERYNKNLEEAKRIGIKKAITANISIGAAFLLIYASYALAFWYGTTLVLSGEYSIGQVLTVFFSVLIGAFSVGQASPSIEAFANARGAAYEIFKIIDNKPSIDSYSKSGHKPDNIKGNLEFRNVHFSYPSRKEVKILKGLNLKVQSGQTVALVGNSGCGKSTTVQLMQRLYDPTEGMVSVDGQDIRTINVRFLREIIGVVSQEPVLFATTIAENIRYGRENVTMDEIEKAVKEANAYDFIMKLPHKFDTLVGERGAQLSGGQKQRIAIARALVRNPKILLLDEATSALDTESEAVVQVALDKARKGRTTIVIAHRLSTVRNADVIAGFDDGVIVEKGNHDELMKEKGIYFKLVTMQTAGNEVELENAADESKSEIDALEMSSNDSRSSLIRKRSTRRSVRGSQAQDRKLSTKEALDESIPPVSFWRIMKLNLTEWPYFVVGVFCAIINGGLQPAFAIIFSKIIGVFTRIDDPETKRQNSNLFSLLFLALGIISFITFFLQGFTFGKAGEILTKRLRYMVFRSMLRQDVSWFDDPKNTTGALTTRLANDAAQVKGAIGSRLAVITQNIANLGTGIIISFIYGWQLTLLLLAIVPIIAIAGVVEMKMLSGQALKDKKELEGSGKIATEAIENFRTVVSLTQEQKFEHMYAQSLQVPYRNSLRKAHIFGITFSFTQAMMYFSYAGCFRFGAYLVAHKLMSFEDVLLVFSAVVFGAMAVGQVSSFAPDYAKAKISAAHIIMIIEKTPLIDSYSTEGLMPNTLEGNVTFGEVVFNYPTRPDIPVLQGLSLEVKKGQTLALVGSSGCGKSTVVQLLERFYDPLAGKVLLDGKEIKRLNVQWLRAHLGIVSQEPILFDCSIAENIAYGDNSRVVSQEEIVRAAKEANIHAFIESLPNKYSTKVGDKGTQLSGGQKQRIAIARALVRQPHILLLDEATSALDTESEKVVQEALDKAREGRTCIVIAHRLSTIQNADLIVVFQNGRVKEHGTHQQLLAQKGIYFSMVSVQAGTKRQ

Kp uu (in vivo [1]; Kp,uu,CSF Rat) | Kp uu (in vivo [1]; Kp,uu,brain Rat) | efflux ratio at 1 h, 1 μM (MDR1) | efflux ratio at 1 h, 1 μM (BCRP) | SMILES | Kp,uu,brain Rat ([4]; *3 ref Summerfield et al. (25)) | Kp,uu,CSF Rat ([4]; *7 ref Kodaira et al. (20)) | Kp,uu,brain Rat ([4]; *7 ref Kodaira et al. (20)) | Kp,uu,CSF Human ([3]; *4 ref Friden et al. (21)) | Kp,uu,CSF Rat ([4]; *4 ref Friden et al. (21)) | other results
0.752 | 0.8 | 1.3 | 0.9 | NC(=O)N1c2ccccc2C=Cc2ccccc21 [Carbamazepine] | 0.39 | 0.535 | 0.771 |  |  | Kp,uu,brain Human [3]: 0.55; Kp,uu,CSF Human ([3]; *10 ref Gatti et al. (28)): 1.00; Kp,uu,CSF Monkey [2, 6]: 1.19; Kp,uu,brain Monkey [2, 6]: 1.27
 |  | 1.3 | 0.8 | Nc1ccc(S(=O)(=O)c2ccc(N)cc2)cc1 [Dapsone] |  |  |  |  |  | Kp,uu,CSF Human ([3]; *11 ref Togashi et al. (29)): 1.56; Kp uu at 6 h (in vivo [5]; Kp,uu,CSF Monkey): 0.661; Kp uu at 6 h (in vivo [5]; Kp,uu,brain Monkey): 1.02
0.409 | 0.061 | 19.8 | 5.8 | C#Cc1cccc(Nc2ncnc3cc(OCCOC)c(OCCOC)cc23)c1 [Erlotinib] |  |  |  |  |  | Kp,uu,CSF Human ([3]; *2 ref Post et al. (24)): 0.428
 |  |  |  | O=c1c(-c2ccc(O)cc2)coc2cc(O)cc(O)c12 [Genistein] |  | 0.589 | 0.181 |  |  | Kp,uu,CSF Rat (in vivo [1]; *1 data internally obtained): 1.29; Kp,uu,brain Rat (in vivo [1]; *1 data internally obtained): 0.0238; Kp,uu,CSF Monkey (in vivo [5]; monkey, lumbar CSF, *1 data internally obtained): 0.0369; Kp,uu,brain Monkey (in vivo [5]; monkey, *1 data internally obtained): 0.0128
 |  | 3.2 | 12 | COc1ccc2c(c1)c(CC(=O)O)c(C)n2C(=O)c1ccc(Cl)cc1 [Indomethacin] |  |  |  | 0.27 | 0.17 | 
 |  |  |  | Nc1nnc(-c2cccc(Cl)c2Cl)c(N)n1 [Lamotrigine] | 1.40 |  |  | 1.1 | 0.86 | Kp,uu,brain Human [3]: 2.80; Kp,uu,CSF Monkey [2, 6]: 0.875; Kp,uu,brain Monkey [2, 6]: 0.678
 |  | 1.4 | 1.2 | CN(Cc1cnc2nc(N)nc(N)c2n1)c1ccc(C(=O)N[C@@H](CCC(=O)O)C(=O)O)cc1 [Methotrexate] |  |  |  | 0.062 | 0.007 | 

SMILES | Kp uu (in vivo [1]; Kp,uu,CSF Rat) | Kp uu (in vivo [1]; Kp,uu,brain Rat) | efflux ratio at 1 h, 1 μM (MDR1) | efflux ratio at 1 h, 1 μM (BCRP) | Kp,uu,brain Rat ([4]; *3 ref Summerfield et al. (25)) | Kp,uu,CSF Rat ([4]; *7 ref Kodaira et al. (20)) | Kp,uu,brain Rat ([4]; *7 ref Kodaira et al. (20)) | Kp,uu,CSF Human ([3]; *4 ref Friden et al. (21)) | Kp,uu,CSF Rat ([4]; *4 ref Friden et al. (21)) | other results
Cc1cc(=O)n(-c2ccccc2)n1C [Antipyrine] | 0.944 | 0.857 | 0.9 | 1 |  |  |  |  |  | Kp,uu,CSF Monkey ([2]; cynomolgus monkey, in vivo): 1.05; Kp,uu,brain Monkey ([2]; cynomolgus monkey, in vivo): 0.857
CN(C)C(=O)C(CCN1CCC(O)(c2ccc(Cl)cc2)CC1)(c1ccccc1)c1ccccc1 [Loperamide] |  |  | 92 | 0.97 | 0.024 | 0.038 | 0.00896 |  | 0.037 | Kp,uu,brain Monkey ([2]; monkey, *8 ref Uchida et al. (31)): 0.04; Kp,uu,brain Rat ([4]; *4 ref Friden et al. (21)): 0.007
